Measured values from patent US10538681B2, “Aqueous ink for ink jet recording” (Seiko Epson Corporation, priority 2017, dated 2020).

test: water-octanol distribution coefficient (log P value); assay type: physicochemical; settings: octanol/water; value defined by OECD Test Guideline 107
Text: The higher the log P value, the higher the hydrophobicity, and the lower the log P value, the higher the hydrophilicity.

Row | SMILES | logP
1 | CC(C)CCOCC(O)CO (stereo not drawn) [3-isopentyloxy-1,2 propanediol] | 0.64
2 | CC(C)CCC(C)(O)C#CC(C)(O)CCC(C)C (stereo not drawn) [Surfynol DF 110 D, 2,5,8,11-tetramethyl-6-dodecyne-5,8-diol] | 4.18
3 | C=C(C)C(=O)OCC(O)CO (stereo not drawn) [glycerin 1-methacrylate] | -0.12

same assay, conditions: value defined by OECD Test Guideline 107

Row | SMILES | water-octanol distribution coefficient (log P)
4 | CCCCC(O)CO (stereo not drawn) [1,2-hexanediol] | 0.7
5 | CCCC(=O)OCC(O)COC(=O)CCC [1,3-dibutyrin] | 1.59
6 | CCCCC(CC)C(=O)OCC(O)CO (stereo not drawn) [2-ethylhexanoate 2,3-dihydroxypropyl] | 1.73
7 | CCCCCCCC(O)CCCC(=O)OCC(O)CO (stereo not drawn) [5-hydroxydodecanoate 2,3-dihydroxypropyl] | 2.15
8 | CCCC(=O)OCC(O)CO (stereo not drawn) [Example 1-butyrine, 1-butyrine] | −0.21
9 | CCCCCC(=O)OCC(O)CO (stereo not drawn) [α-monocaproin] | 0.85
